Reference: ChEMBL document CHEMBL1201862, “PubChem BioAssay data set” (2004)
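Dose response: 5 concentrations. Exposure: 48 h. Format: 96-well plates. Endpoint: linear interpolation; highest concentration if not reached. GI50 = concentration required for 50% inhibition of growth.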 The source made the active and inactive calls. Cut-off read from the data, not from the text of the source: active = GI50 up to about 1.1 µM and inactive = higher.

Experiments:
Assay in all cases: NCI tumour cell line growth inhibition, 48 h
[1] = test system: A549
[2] = test system: ACHN
[3] = test system: CAKI-1
[4] = test system: CCRF-CEM
[5] = test system: COLO 205
[6] = test system: HCT-116
[7] = test system: KM12
[8] = test system: Malme-3M
[9] = test system: OVCAR-4
[10] = test system: OVCAR-8
[11] = test system: SF-268
[12] = test system: SF-539
[13] = test system: SK-MEL-2
[14] = test system: SN12C
[15] = test system: SR
[16] = test system: NCI-H226
[17] = test system: OVCAR-5
[18] = test system: UO-31
[19] = test system: RPMI-8226

| SMILES | GI50 [1] | GI50 [2] | GI50 [3] | GI50 [4] | GI50 [5] | GI50 [6] | GI50 [7] | GI50 [8] | GI50 [9] | GI50 [10] | GI50 [11] | GI50 [12] | GI50 [13] | GI50 [14] | GI50 [15] | GI50 [16] | GI50 [17] | GI50 [18] | GI50 [19] |
| --- | --- | --- | --- | --- | --- | --- | --- | --- | --- | --- | --- | --- | --- | --- | --- | --- | --- | --- | --- |
| N/C(=N\N=C=C1C(=O)Nc2ccc(F)cc21)NO | > 100 µM (inactive) | 59.8 µM (inactive) | 28 µM (inactive) | 98.2 µM (inactive) | > 100 µM (inactive) | > 100 µM (inactive) | 41.4 µM (inactive) | > 100 µM (inactive) | > 100 µM (inactive) | > 100 µM (inactive) | > 100 µM (inactive) | > 100 µM (inactive) | > 100 µM (inactive) | > 100 µM (inactive) | > 100 µM (inactive) |  |  |  |  |
| COC(=O)c1cc(Br)c(Br)n1C | > 100 µM (inactive) | > 100 µM (inactive) | > 100 µM (inactive) | > 100 µM (inactive) | > 100 µM (inactive) | > 100 µM (inactive) | > 100 µM (inactive) | > 100 µM (inactive) | > 100 µM (inactive) | > 100 µM (inactive) | > 100 µM (inactive) | > 100 µM (inactive) |  | > 100 µM (inactive) | 33.9 µM (inactive) | > 100 µM (inactive) | > 100 µM (inactive) | > 100 µM (inactive) |  |
| Nc1ccc(C(=O)N/C(=C\c2cccc([N+](=O)[O-])c2)c2nc3c4c(ccc3[nH]2)C(=O)c2ccccc2C4=O)cc1 | 18.6 µM (inactive) |  | 8.69 µM (inactive) | 0.853 µM (active) | > 100 µM (inactive) | 22 µM (inactive) |  | > 100 µM (inactive) | 15 µM (inactive) | 25 µM (inactive) | 2.94 µM (inactive) | 13.8 µM (inactive) | 91.6 µM (inactive) | > 100 µM (inactive) |  |  | > 100 µM (inactive) | 1.86 µM (inactive) | 6.78 µM (inactive) |
| CCOC(=O)C1S/C(=N\c2ccc(Cl)c(Cl)c2)N=C1C (centres undefined) | 28.4 µM (inactive) | 29.5 µM (inactive) | 35.1 µM (inactive) | 13.2 µM (inactive) | 29 µM (inactive) |  | 27.9 µM (inactive) | 51.6 µM (inactive) | 20.3 µM (inactive) | 35.4 µM (inactive) | 54.6 µM (inactive) | 34 µM (inactive) | 95.1 µM (inactive) | 19.6 µM (inactive) |  | 23.4 µM (inactive) | 44.1 µM (inactive) | 92.9 µM (inactive) | 17.8 µM (inactive) |
| Cn1cnc([N+](=O)[O-])c1Sc1nc2cccnc2[nH]1 | 90.2 µM (inactive) | > 100 µM (inactive) | 18.3 µM (inactive) | 14.5 µM (inactive) | 17.8 µM (inactive) | 90.6 µM (inactive) | 54.1 µM (inactive) | > 100 µM (inactive) | 41.1 µM (inactive) | 86.5 µM (inactive) | 74.8 µM (inactive) | > 100 µM (inactive) |  | 40.3 µM (inactive) | 35.9 µM (inactive) | > 100 µM (inactive) | > 100 µM (inactive) | 89.7 µM (inactive) | 68.5 µM (inactive) |
| O=C(c1ccccc1)C(c1ccccc1)C1(O)C(=O)Nc2c(Cl)ccc(Cl)c21 (centres undefined) | 26.1 µM (inactive) | 16.9 µM (inactive) | 20.5 µM (inactive) | 12.2 µM (inactive) | 22.2 µM (inactive) | 16.3 µM (inactive) | 18.2 µM (inactive) | 17.4 µM (inactive) | 3.73 µM (inactive) | 19.4 µM (inactive) | 21.9 µM (inactive) | 20.3 µM (inactive) | 21.2 µM (inactive) | 17.9 µM (inactive) |  |  | 20.4 µM (inactive) | 20.2 µM (inactive) | 12.2 µM (inactive) |
| C[N+](C)=c1nc(N2CCc3ccccc3C2)ss1.[O-][Cl+3]([O-])([O-])[O-] | > 100 µM (inactive) | > 100 µM (inactive) | > 100 µM (inactive) | 82.8 µM (inactive) | 42.8 µM (inactive) | 81.3 µM (inactive) | > 100 µM (inactive) | > 100 µM (inactive) | > 100 µM (inactive) | > 100 µM (inactive) | > 100 µM (inactive) | > 100 µM (inactive) | > 100 µM (inactive) | > 100 µM (inactive) | 54.5 µM (inactive) | > 100 µM (inactive) |  | > 100 µM (inactive) | 69.8 µM (inactive) |
| CC(C)(C)NN=C1C(C)(C)C(=NNC(C)(C)C)C1(C)C | > 100 µM (inactive) | > 100 µM (inactive) | > 100 µM (inactive) |  | > 100 µM (inactive) | > 100 µM (inactive) | > 100 µM (inactive) | > 100 µM (inactive) | > 100 µM (inactive) | > 100 µM (inactive) | > 100 µM (inactive) | > 100 µM (inactive) |  | > 100 µM (inactive) | > 100 µM (inactive) | > 100 µM (inactive) | > 100 µM (inactive) | > 100 µM (inactive) | > 100 µM (inactive) |
